From patent US11058680B2, “Combinations of opioid/TLR4 antagonists and acetaminophen for use in the treatment of emotional pain and insomnia” (Allodynic Threapeutics, LLC, priority 2016, dated 2021)
Where “and” joins values, the source holds several entries; their conditions need not be identical. Equal entries are not always repeated.

Test system: migraine attacks
Assay: Naltrexone/acetaminophen open-label pilot study, acute treatment of migraine: headache pain (4-point scale; relief score ≤1, pain-free score = 0), associated symptoms, additional meds
Format: in vivo, human
Method: Sixteen unique patients were enrolled in an open phase pilot study for the acute treatment of migraine attacks, insomnia, and emotional pain. Of the sixteen patients, eleven were evaluated for one migraine attack, one for two attacks, two for four attacks, one for six attacks, and one for fourteen attacks. A total of forty-one […] treatments were evaluated. Patients received a single dose of one of the following treatment options:
The majority of the patients remained in the clinic for observation for 2 hours after dosing. They completed headache diary assessments immediately before and after dosing at time points: 7, 15, and 30 minutes; and 1, 1.5, 2, 3, 6, 12, 24, and 48 hours. Headache pain was assessed on a 4-point scale (0=none; 1=mild; 2=moderate; 3=severe). The assessment of photophobia, phonophobia, nausea, and neck/shoulder pain was assessed as present or absent. The assessment of emotional pain was recorded on a 4-point scale (0=none, 1=mild, 2=moderate, 3=severe). The assessment of difficulty sleeping or falling asleep (insomnia) was assessed on a 4-point scale (0=none, 1=mild, 2=moderate, 3=severe) at baseline, for the night before treatment and for the following nights at 24, and 48 hours. Patients recorded side effects severity at each time point. Patients recorded the time of the first rescue medication dose and all additional headache medications used within 48 hours. Patients were required to stay awake to record their assessments in the first 2 hours, sleeping was permitted thereafter. While asleep, assessments were completed according to patients' best estimation. For data analysis, it was assumed that a migraine attack is a unique patient. Patients were asked to specify (yes or no answer) to whether they experienced emotional pain symptoms such as: hurt feelings, sadness, fear, or anger. Patients who replied positively to having emotional pain were asked to specify the cause into one of the following options: relationship, work/school, money/debt, health, or loss/grief.

[1] = 1 h, NTX/APAP 3.25 mg/325 mg, NTX 3.25 mg
[2] = 1 h, NTX/APAP 5 mg/325 mg, NTX 5 mg
[3] = 1 h, NTX/APAP […]325 mg, NTX 1.5 mg
[4] = 1 h, naltrexone/acetaminophen 2.25 mg/325 mg (N=21), naltrexone 2.25 mg (N=9)
[5] = 90 min, NTX/APAP 2.25 mg/325 mg, NTX 2.25 mg
[6] = 90 min, NTX/APAP 3.25 mg/325 mg, NTX 3.25 mg
[7] = 90 min, NTX/APAP 5 mg/325 mg, NTX 5 mg
[8] = 90 min, NTX/APAP […]325 mg, NTX 1.5 mg
[9] = 90 min, naltrexone/acetaminophen 2.25 mg/325 mg (N=21), naltrexone 2.25 mg (N=9)
[10] = 2 h, NTX/APAP 2.25 mg/325 mg, NTX 2.25 mg
[11] = 2 h, NTX/APAP 3.25 mg/325 mg, NTX 3.25 mg
[12] = 2 h, NTX/APAP 5 mg/325 mg, NTX 5 mg
[13] = 2 h, NTX/APAP […]325 mg, NTX 1.5 mg
[14] = 2 h, naltrexone/acetaminophen 2.25 mg/325 mg (N=21), naltrexone 2.25 mg (N=9)
[15] = 3 h, NTX/APAP 2.25 mg/325 mg, NTX 2.25 mg

## O=C1CC[C@@]2(O)[C@H]3Cc4ccc(O)c5c4[C@@]2(CCN3CC2CC2)[C@H]1O5 [naltrexone]
[1]
  Headache pain-relief: 3 (100) n (%)
  Most bothersome symptom free: 2 (66) n (%)
  Nausea-free: 3 (100) n (%)
  Neck/shoulder pain-free: 3 (100) n (%)
  Phonophobia-free: 2 (66) n (%)
  Photophobia-free: 1 (33) n (%)
[2]
  Additional meds taken: 0
  Headache pain-free: 0 n (%)
  Headache pain-relief: 1 n (%)
  Most bothersome symptom free: 1 n (%)
  Nausea-free: 1 n (%)
  Neck/shoulder pain-free: 1 n (%)
  Phonophobia-free: 1 n (%)
  Photophobia-free: 1 n (%)
[3]
  Additional meds taken: 0
  Headache pain-free: 1 (33) n (%)
  Headache pain-relief: 2 (66) n (%)
  Most bothersome symptom free: 1 (33) n (%)
  Nausea-free: 3 (100) n (%)
  Neck/shoulder pain-free: 2 (66) n (%)
  Phonophobia-free: 1 (33) n (%)
  Photophobia-free: 2 (66) n (%)
1 h, all doses combined
  Additional meds taken: 0
  Headache pain-free: 8 (50) n (%)
  Headache pain-relief: 13 (81) n (%)
  Most bothersome symptom free: 11 (69) n (%)
  Nausea-free: 12 (75) n (%)
  Neck/shoulder pain-free: 12 (75) n (%)
  Phonophobia-free: 12 (75) n (%)
  Photophobia-free: 10 (63) n (%)
1 h, naltrexone 1.5 mg (N=3)
  Headache pain-free: 33%
[4]
  Headache pain-free: 44%
  Headache pain-relief: 88%
  Most bothersome symptom-free: 77%
1 h, naltrexone/acetaminophen 3.25 mg/325 mg (N=3), naltrexone 3.25 mg (N=3)
  Headache pain-free: 100%
[5]
  Additional meds taken: 0 (0)
  Headache pain-free: 7 (77) n (%)
  Headache pain-relief: 9 (100) n (%)
  Most bothersome symptom free: 9 (100) n (%)
  Nausea-free: 9 (100) n (%)
  Neck/shoulder pain-free: 9 (100) n (%)
  Phonophobia-free: 9 (100) n (%)
  Photophobia-free: 8 (88) n (%)
[6]
  Additional meds taken: 0 (0)
  Headache pain-free: 3 (100) n (%)
  Headache pain-relief: 3 (100) n (%)
  Most bothersome symptom free: 2 (66) n (%)
  Nausea-free: 2 (66) n (%)
  Neck/shoulder pain-free: 3 (100) n (%)
  Phonophobia-free: 2 (66) n (%)
  Photophobia-free: 2 (66) n (%)
[7]
  Additional meds taken: 0 (0)
  Headache pain-free: 1 (100) n (%)
  Headache pain-relief: 1 (100) n (%)
  Most bothersome symptom free: 1 (100) n (%)
  Nausea-free: 1 (100) n (%)
  Neck/shoulder pain-free: 1 (100) n (%)
  Phonophobia-free: 1 (100) n (%)
  Photophobia-free: 1 (100) n (%)
[8]
  Additional meds taken: 0 (0)
  Headache pain-free: 1 (33) n (%)
  Headache pain-relief: 3 (100) n (%)
  Most bothersome symptom free: 2 (66) n (%)
  Nausea-free: 3 (100) n (%)
  Neck/shoulder pain-free: 1 (33) n (%)
  Phonophobia-free: 1 (100) n (%)
  Photophobia-free: 1 (100) n (%)
90 min, all doses combined
  Additional meds taken: 0
  Headache pain-free: 13 (81) n (%)
  Headache pain-relief: 16 (100) n (%)
  Most bothersome symptom free: 14 (88) n (%)
  Nausea-free: 16 (100) n (%)
  Neck/shoulder pain-free: 14 (88) n (%)
  Phonophobia-free: 13 (81) n (%)
  Photophobia-free: 12 (75) n (%)
90 min, naltrexone 1.5 mg (N=3)
  Headache pain-free: 100%
[9]
  Headache pain-free: 77% and 100%
  Headache pain-relief: 100%
  Most bothersome symptom-free: 100%
90 min, naltrexone/acetaminophen 3.25 mg/325 mg (N=3), naltrexone 3.25 mg (N=3)
  Headache pain-free: 100%
[10]
  Additional meds taken: 0
  Headache pain-free: 7 (77) n (%)
  Headache pain-relief: 9 (100) n (%)
  Most bothersome symptom free: 9 (100) n (%)
  Nausea-free: 9 (100) n (%)
  Neck/shoulder pain-free: 9 (100) n (%)
  Phonophobia-free: 9 (100) n (%)
  Photophobia-free: 8 (88) n (%)
[11]
  Additional meds taken: 0
  Headache pain-free: 3 (100) n (%)
  Headache pain-relief: 3 (100) n (%)
  Most bothersome symptom free: 3 (100) n (%)
  Nausea-free: 3 (100) n (%)
  Neck/shoulder pain-free: 3 (100) n (%)
  Phonophobia-free: 3 (100) n (%)
  Photophobia-free: 3 (100) n (%)
[12]
  Additional meds taken: 0
  Headache pain-free: 1 n (%)
  Headache pain-relief: 1 n (%)
  Most bothersome symptom free: 1 n (%)
  Nausea-free: 1 n (%)
  Neck/shoulder pain-free: 1 n (%)
  Phonophobia-free: 1 n (%)
  Photophobia-free: 1 n (%)
[13]
  Additional meds taken: 0
  Headache pain-free: 3 (100) n (%)
  Headache pain-relief: 3 (100) n (%)
  Most bothersome symptom free: 3 (100) n (%)
  Nausea-free: 3 (100) n (%)
  Neck/shoulder pain-free: 3 (100) n (%)
  Phonophobia-free: 3 (100) n (%)
  Photophobia-free: 3 (100) n (%)
2 h, combined doses
  Additional meds taken: 0
  Headache pain-free: 14 (88) n (%)
  Headache pain-relief: 16 (100) n (%)
  Most bothersome symptom free: 16 (100) n (%)
  Nausea-free: 16 (100) n (%)
  Neck/shoulder pain-free: 16 (100) n (%)
  Phonophobia-free: 16 (100) n (%)
  Photophobia-free: 16 (100) n (%)
2 h, naltrexone 1.5 mg (N=3)
  Headache pain-free: 100%
[14]
  Headache pain-free: 77% and 100%
  Headache pain-relief: 100%
  Most bothersome symptom-free: 100%
2 h, naltrexone/acetaminophen 3.25 mg/325 mg (N=3), naltrexone 3.25 mg (N=3)
  Headache pain-free: 100%
[15]
  Additional meds taken: 0 (0)
  Headache pain-free: 7 (77) n (%)
  Headache pain-relief: 9 (100) n (%)
  Most bothersome symptom free: 9 (100) n (%)
  Nausea-free: 9 (100) n (%)
  Neck/shoulder pain-free: 9 (100) n (%)
  Phonophobia-free: 9 (100) n (%)
